Reference: patent US20220402948A1, “EGFR INHIBITOR, COMPOSITION AND PREPARATION METHOD THEREFOR” (BETTA PHARMACEUTICALS CO., LTD., priority 2019, published 2022)
Where two headings read alike, the source gives them in different places.

Key:
[1] = test system: A431; assay: A431 cell proliferation assay (CellTiter Glo, 72 hours); format: cell-based
Method in brief: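 Luminescence (CellTiter-Glo) after 72 h treatment gives viability, fitted by nonlinear regression to yield IC50. Cells seeded at 2000 per well; nine 3-fold concentrations from 1000 nM, DMSO final 0.1% (0.5% for certain compounds).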

[2] = target: Ba/F3-EGFR wild-type cell line (Homo sapiens, UniProt P00533); assay: Ba/F3-EGFR wild-type cell proliferation assay (CellTiter Glo, 72 hours); format: cell-based; details: Table 2, read-out: EGFR WT IC50
Method: Cell line: Ba/F3 cells with EGFR Δ19del/T790M/C797S mutation gene stably overexpressed named Ba/F3-Δ119del/T90M/C797S, and A431 and Ba/F3-EGFR wild-type cell line.
a) Centrifuge the growth cells in logarithmic phase at 1000 rpm for 5 minutes, resuspend the cells in culture medium, and then count the cells;
b) Inoculate the cells into a 96-well cell culture plate with a density of 2000 cells/well;
b) Incubate cells in an incubator for another 72 hours.
a) Take out the 96-well cell culture plate and add 50 μl CTG reagent (CellTiter Glo kit, promega, Cat #G7573);
b) Shake the plate for 2 minutes and let cool at room temperature for 10 minutes;
c) Read luminous signal value with PerkinElmer reader,
Analysis of Experimental Data
The data were analyzed by GraphPad Prism 6.0 software to obtain the fitting curve of compound activity.
Y=Min+(Max−Min)/(1+10^((Log IC50−X)*slope));
X: Logarithm of compound concentration; Y: luminous signal.

[3] = target: EGFR WT (Homo sapiens, UniProt P00533); assay: EGFR WT kinase test (mobility variation analysis, Caliper EZ Reader); format: biochemical; details: kinase enzymatic activity, Table 1
Method in brief: (§1)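 Read-out is substrate-to-product conversion by mobility shift, stopped after incubation at room temperature with ATP and substrate, following a 10-minute room-temperature compound–enzyme pre-incubation. IC50 obtained by four-parameter variable-slope fitting of inhibition normalized between enzyme-free and uninhibited controls.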

[4] = target: EGFRΔ19del/T790M/C797S (Homo sapiens, UniProt P00533, T790M/C797S, form not given); assay: EGFR Δ19del/T790M/C797S kinase test (mobility variation analysis, Caliper EZ Reader); format: biochemical; details: kinase enzymatic activity, Table 1
Method in brief: as §1

[5] = target: Ba/F3 cells with EGFR Δ19del/T790M/C797S mutation gene stably overexpressed (Homo sapiens, UniProt P00533, T790M/C797S, cells depend on it, form not given); assay: Ba/F3-Δ19del/T790M/C797S cell proliferation assay (CellTiter Glo, 72 hours); format: cell-based
Method in brief: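 Ba/F3 cells stably overexpressing wild-type EGFR or EGFR Δ19del/T790M/C797S were seeded at 2000 cells/well and incubated 72 h with compound. Viability was read by CellTiter-Glo luminescence, and IC50 came from a four-parameter logistic fit of signal against log concentration.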

[6] = target: IGF1R (Homo sapiens, UniProt P08069); assay: IGF1R kinase test (mobility variation analysis, Caliper EZ Reader); format: biochemical; details: kinase enzymatic activity, Table 1; read-out: EGFR IGF1R IC50
Method in brief: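 Mobility-shift readout of substrate conversion, normalised to positive (no compound) and negative (no kinase) controls, gives % inhibition and IC50 by four-parameter fit. Compounds, 3-fold dilutions over 10 concentrations starting at 3000 nM, preincubated 10 min with kinase before ATP/substrate start; room temperature.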

[7] = Homo sapiens, A-431, 72 h, cell proliferation, A431, 72 hours, Table 2, read-out: A431 IC50
[8] = Table 2, read-out: EGFR Δ19del/T790M/C797S IC50

Sequence of IGF1R (P08069 31-1367, species assumed): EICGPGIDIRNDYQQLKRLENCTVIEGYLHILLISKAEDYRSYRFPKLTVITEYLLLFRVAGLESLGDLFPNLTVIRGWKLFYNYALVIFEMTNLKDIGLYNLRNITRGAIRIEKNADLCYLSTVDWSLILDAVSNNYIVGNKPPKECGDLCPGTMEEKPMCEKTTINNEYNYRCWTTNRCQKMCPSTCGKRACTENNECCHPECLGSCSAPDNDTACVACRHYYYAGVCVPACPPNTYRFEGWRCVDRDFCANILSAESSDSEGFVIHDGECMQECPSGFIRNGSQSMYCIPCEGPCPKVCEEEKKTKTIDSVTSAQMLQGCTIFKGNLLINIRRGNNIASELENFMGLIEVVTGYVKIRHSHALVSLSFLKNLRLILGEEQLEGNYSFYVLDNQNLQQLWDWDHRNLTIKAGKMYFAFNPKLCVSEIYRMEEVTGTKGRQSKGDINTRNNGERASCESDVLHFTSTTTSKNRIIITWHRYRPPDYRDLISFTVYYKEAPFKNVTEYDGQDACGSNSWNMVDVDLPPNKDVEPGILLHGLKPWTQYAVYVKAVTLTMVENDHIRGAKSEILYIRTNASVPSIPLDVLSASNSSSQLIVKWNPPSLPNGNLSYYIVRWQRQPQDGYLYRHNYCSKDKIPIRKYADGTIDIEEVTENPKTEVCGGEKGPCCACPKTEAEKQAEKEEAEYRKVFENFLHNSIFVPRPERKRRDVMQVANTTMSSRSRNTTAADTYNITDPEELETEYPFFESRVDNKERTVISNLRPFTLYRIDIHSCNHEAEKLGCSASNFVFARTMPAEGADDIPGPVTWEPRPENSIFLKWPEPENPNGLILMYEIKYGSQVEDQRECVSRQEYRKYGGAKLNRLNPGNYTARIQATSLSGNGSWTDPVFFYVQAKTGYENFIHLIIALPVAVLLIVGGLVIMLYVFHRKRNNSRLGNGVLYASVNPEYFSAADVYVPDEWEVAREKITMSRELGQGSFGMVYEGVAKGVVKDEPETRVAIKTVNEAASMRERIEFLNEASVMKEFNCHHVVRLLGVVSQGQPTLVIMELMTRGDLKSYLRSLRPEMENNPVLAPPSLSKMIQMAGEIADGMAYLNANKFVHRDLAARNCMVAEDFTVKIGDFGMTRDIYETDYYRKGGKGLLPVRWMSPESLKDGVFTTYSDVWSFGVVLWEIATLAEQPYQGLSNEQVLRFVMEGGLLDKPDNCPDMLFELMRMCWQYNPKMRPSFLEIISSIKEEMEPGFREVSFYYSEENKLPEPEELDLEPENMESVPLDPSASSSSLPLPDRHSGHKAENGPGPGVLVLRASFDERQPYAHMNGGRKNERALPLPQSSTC
Sequence of EGFR WT (P00533 25-1210): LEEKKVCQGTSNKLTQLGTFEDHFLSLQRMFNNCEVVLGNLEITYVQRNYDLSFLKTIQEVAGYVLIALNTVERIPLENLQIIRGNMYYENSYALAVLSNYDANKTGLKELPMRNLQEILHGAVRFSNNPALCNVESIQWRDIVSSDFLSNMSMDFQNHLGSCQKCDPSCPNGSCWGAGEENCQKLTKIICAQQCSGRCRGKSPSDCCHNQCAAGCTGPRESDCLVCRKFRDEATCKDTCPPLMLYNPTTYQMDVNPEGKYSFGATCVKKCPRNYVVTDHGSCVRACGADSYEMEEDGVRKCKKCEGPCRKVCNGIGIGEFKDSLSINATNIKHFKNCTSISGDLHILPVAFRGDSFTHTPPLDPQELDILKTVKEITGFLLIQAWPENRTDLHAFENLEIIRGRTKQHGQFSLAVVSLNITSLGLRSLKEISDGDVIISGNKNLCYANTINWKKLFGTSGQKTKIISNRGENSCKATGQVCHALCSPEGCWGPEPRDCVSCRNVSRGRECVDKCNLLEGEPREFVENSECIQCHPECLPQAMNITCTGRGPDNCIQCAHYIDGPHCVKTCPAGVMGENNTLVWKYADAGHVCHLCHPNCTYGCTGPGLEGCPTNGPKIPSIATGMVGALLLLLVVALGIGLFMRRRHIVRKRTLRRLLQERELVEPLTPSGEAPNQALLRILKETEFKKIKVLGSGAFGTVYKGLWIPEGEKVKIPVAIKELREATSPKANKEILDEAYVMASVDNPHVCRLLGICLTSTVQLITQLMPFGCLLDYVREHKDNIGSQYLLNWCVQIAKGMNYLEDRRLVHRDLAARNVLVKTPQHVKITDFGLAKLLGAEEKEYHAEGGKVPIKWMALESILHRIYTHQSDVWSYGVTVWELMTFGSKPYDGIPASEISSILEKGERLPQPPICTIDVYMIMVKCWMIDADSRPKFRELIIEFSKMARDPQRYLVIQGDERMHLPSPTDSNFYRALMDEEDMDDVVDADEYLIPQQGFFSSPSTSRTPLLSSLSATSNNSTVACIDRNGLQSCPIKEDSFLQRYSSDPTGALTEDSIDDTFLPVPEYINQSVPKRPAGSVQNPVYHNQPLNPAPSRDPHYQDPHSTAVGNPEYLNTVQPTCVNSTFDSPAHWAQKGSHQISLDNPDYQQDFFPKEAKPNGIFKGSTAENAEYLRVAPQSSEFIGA
Sequence of Ba/F3 cells with EGFR Δ19del/T790M/C797S mutation gene stably overexpressed (P00533 with tags, fused parts or gaps DEL746-750/T790M/C797S, form open): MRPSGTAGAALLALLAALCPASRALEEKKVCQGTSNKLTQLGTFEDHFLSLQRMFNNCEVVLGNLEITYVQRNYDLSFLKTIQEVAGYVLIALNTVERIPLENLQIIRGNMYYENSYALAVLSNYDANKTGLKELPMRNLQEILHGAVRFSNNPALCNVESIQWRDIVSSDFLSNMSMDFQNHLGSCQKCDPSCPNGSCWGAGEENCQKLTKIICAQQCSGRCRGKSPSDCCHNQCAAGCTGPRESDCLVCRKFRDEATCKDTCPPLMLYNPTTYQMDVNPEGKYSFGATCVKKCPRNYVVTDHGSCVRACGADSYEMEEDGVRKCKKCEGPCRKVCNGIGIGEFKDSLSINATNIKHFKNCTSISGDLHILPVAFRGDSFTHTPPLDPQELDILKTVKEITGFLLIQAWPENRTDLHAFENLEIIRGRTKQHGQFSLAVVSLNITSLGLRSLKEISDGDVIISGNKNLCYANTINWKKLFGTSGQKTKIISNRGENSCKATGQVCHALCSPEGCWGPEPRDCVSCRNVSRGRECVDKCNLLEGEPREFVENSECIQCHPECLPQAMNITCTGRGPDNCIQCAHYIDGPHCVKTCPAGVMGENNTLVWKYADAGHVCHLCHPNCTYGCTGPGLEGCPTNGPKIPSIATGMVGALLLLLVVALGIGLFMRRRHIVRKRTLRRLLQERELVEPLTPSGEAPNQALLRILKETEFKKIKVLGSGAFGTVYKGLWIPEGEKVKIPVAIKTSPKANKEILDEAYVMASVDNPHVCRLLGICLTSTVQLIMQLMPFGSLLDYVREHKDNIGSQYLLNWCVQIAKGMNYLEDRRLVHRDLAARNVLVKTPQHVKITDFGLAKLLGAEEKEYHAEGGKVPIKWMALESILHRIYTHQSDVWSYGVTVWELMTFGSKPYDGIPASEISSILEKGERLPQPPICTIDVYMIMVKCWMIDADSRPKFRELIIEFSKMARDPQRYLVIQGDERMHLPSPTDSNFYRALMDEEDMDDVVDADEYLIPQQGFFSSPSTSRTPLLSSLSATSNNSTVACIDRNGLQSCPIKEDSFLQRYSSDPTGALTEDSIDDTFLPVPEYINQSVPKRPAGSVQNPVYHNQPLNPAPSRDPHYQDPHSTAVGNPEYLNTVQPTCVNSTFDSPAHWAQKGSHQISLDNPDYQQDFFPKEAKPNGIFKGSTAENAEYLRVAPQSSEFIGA
Sequence of EGFRΔ19del/T790M/C797S (P00533 with tags, fused parts or gaps DEL746-750/T790M/C797S, form open): as above

Compound | IC50 [1, 7] [nM] | GI50 [2] [nM] | IC50 [3] [nM] | IC50 [4] [nM] | GI50 [5, 8] [nM] | IC50 [6] [nM] | IC50 ([1]; cell proliferation, A431, 72 hours, Table 2, read-out: A431 IC50) [nM] | IC50 ([1]; Homo sapiens, A-431, 72 h, read-out: A431 IC50(nM)) [nM] | GI50 ([5]; read-out: EGFR Δ19del/T790M/C797S IC50, Table 2) [nM]
CCc1cc(Nc2ncc(Br)c(Nc3ccc(-c4cncc(OC)n4)cc3P(C)(C)=O)n2)c(OC)cc1N1CCC(N2CCN(C)CC2)CC1 [Compound 59, (2-((5-Bromo-2-((5-ethyl-2-methoxy-4-(4-(4-methylpiperazin-1-yl)piperidin-1-yl)phenyl)amino)pyrimidin-4-yl)amino)-5-(6-methoxypyrazin-2-yl)phenyl)dimethylphosphine oxide] | – | 1290 | 41 | 1.3 | 26.3 | 395 | 2300 | – | –
CCc1cc(Nc2ncc(Br)c(Nc3ccc(-c4cnccn4)cc3P(C)(C)=O)n2)c(OC)cc1N1CCC(N2CCN(C)CC2)CC1 [Compound 78, (2-((5-Bromo-2-((5-ethyl-2-methoxy-4-(4-(4-methylpiperazin-1-yl)piperidin-1-yl)phenyl)amino)pyrimidin-4-yl)amino)-5-(pyrazin-2-yl)phenyl)dimethylphosphine oxide] | 1090 | 134 | 12.6 | 0.2 | 7.2 | 94 | – | – | –
CCc1cc(Nc2ncc(Br)c(Nc3ccc(-c4cnn(C)c4)cc3P(C)(C)=O)n2)c(OC)cc1N1CCC(N2CCN(C)CC2)CC1 [Compound 3, (2-((5-Bromo-2-((5-ethyl-2-methoxy-4-(4-(4-methylpiperazin-1-yl)piperidin-1-yl)phenyl)amino)pyrimidin-4-yl)amino)-5-(1-methyl-1hydro-pyrazol-4-yl)phenyl)dimethylphosphine oxide] | 602 | 107 | – | 0.3 | 4.5 | 53.7 | – | – | –
CCc1cc(Nc2ncc(Cl)c(Nc3ccc(-c4ncc(OC)cn4)cc3P(C)(C)=O)n2)c(OC)cc1N1CCC(N2CCN(C)CC2)CC1 [Compound 20, (2-((5-Chloro-2-((5-ethyl-2-methoxy-4-(4-(4-methylpiperazin-1-yl)piperidin-1-yl)phenyl)amino)pyrimidin-4-yl)amino)-5-(5-methoxypyrimidin-2-yl)phenyl)dimethylphosphine oxide] | 1470 | 365 | 19 | 0.5 | 11.8 | 120 | – | – | –
COc1cc(N2CCC(N3CCN(C)CC3)CC2)ccc1Nc1ncc(Cl)c(Nc2ccc(C)cc2P(C)(C)=O)n1 [compound 1, reference compound] | 598 | 836 | 60 | – | 49.9 | 44.1 | – | – | –
CCc1cc(Nc2ncc(Br)c(Nc3ccc(-c4ccco4)cc3P(C)(C)=O)n2)c(OC)cc1N1CCC(N2CCN(C)CC2)CC1 [Compound 16, (2-((5-Bromo-2-((5-ethyl-2-methoxy-4-(4-(4-methylpiperazin-1-yl)piperidin-1-yl)phenyl)amino)pyrimidin-4-yl)amino)-5-(furan-2-yl)phenyl)dimethylphosphine oxide] | 564 | 141 | – | 0.4 | 5.4 | – | – | – | –
COc1cc(N2CCC(N3CCN(C)CC3)CC2)ccc1Nc1ncc(Cl)c(Nc2ccccc2P(C)(C)=O)n1 [Brigatinib, reference compound] | – | 22.5 | – | – | – | 23.4 | – | 309 | 64.9
CCc1cc(Nc2ncc(Br)c(Nc3ccc(-c4cnn(CC)c4)cc3P(C)(C)=O)n2)c(OC)cc1N1CCC(N2CCN(C)CC2)CC1 [Compound 4, (2-((5-Bromo-2-((5-ethyl-2-methoxy-4-(4-(4-methylpiperazin-1-yl)piperidin-1-yl)phenyl)amino)pyrimidin-4-yl)amino)-5-(1-ethyl-1hydro-pyrazol-4-yl)phenyl)dimethylphosphine oxide] | 465 | 84.3 | – | 0.6 | 1.9 | 71.9 | – | – | –

Now from value to compound, other results behind:

IC50 [1, 7] [nM] | GI50 [2] [nM] | IC50 [3] [nM] | IC50 [4] [nM] | GI50 [5, 8] [nM] | IC50 [6] [nM] | IC50 ([1]; cell proliferation, A431, 72 hours, Table 2, read-out: A431 IC50) [nM] | Compound | IC50 ([1]; Homo sapiens, A-431, 72 h, read-out: A431 IC50(nM)) [nM] | GI50 ([5]; read-out: EGFR Δ19del/T790M/C797S IC50, Table 2) [nM]
1440 | 130 | 5.2 | 0.1 | 3.2 | 54.9 | – | CCc1cc(Nc2ncc(Br)c(Nc3ccc(-c4cnn(C)n4)c(F)c3P(C)(C)=O)n2)c(OC)cc1N1CCC(N2CCN(C)CC2)CC1 [Compound K-007, (6-((5-Bromo-2-((5-ethyl-2-methoxy-4-(4-(4-methylpiperazin-1-yl)piperidin-1-yl)phenyl)amino)pyrimidin-4-yl)amino)-2-fluoro-3-(2-methyl-2H-1,2,3-triazol-4-yl)phenyl)dimethylphosphine oxide] | – | –
7530 | 374 | 125 | 0.8 | 10.9 | 251 | – | COc1cc(Nc2ncc(Br)c(Nc3ccc(-c4cnn(C)n4)c(F)c3P(C)(C)=O)n2)c(C)cc1N1CC(C)OC(C)C1 (centres unmarked) [Compound K-037, (6-((5-Bromo-2-((4-(2,6-dimethylmorpholine)-5-methoxy-2-methylphenyl)amino)pyrimidin-4-yl)amino)-2-fluoro-3-(2-methyl-2H-1,2,3-triazol-4-yl)phenyl)dimethylphosphine oxide] | – | –
4450 | 81.8 | 28 | 0.45 | 7.4 | 104 | – | C#Cc1cnc(-c2ccc(Nc3nc(Nc4cc(C)c(N5CCC(N6CCN(C)CC6)CC5)cc4OC)ncc3Br)c(P(C)(C)=O)c2)cn1 [Compound K-011] | – | –
497 | 145 | 13.1 | 0.5 | 15.3 | 94 | – | C#Cc1ccc(-c2ccc(Nc3nc(Nc4cc(C)c(N5CCC(N6CCN(C)CC6)CC5)cc4OC)ncc3Br)c(P(C)(C)=O)c2)s1 [Compound K-016, (2-((5-Bromo-2-((2-methoxy-5-methyl-4-(4-(4-methylpiperazin-1-yl)piperidin-1-yl)phenyl)amino)pyrimidin-4-yl)amino)-5-(5-ethynylthiophen-2-yl)phenyl)dimethylphosphine oxide] | – | –
1280 | 89.5 | 41.5 | 0.2 | 5 | 136 | – | COc1cnn(-c2ccc(Nc3nc(Nc4cc(OC)c(N5CCOCC5)cc4C)ncc3Br)c(P(C)(C)=O)c2)c1 [Compound K-023, (2-((5-Bromo-2-((5-methoxy-2-methyl-4-morpholinophenyl)amino)pyrimidin-4-yl)amino)-5-(4-methoxy-1H-pyrazol-1-yl)phenyl)dimethylphosphine oxide] | – | –
5220 | 46 | 12 | 0.19 | 2.6 | 35 | – | COc1cc(Nc2ncc(Br)c(Nc3ccc(-c4cnn(C)n4)c(F)c3P(C)(C)=O)n2)c(C)cc1N1CCC(N2CCN(C)CC2)CC1 [Compound K-012, (6-((5-Bromo-2-((5-methoxy-2-methyl-4-(4-(4-methylpiperazin-1-yl)piperidin-1-yl)phenyl)amino)pyrimidin-4-yl)amino)-2-fluoro-3-(2-methyl-2H-1,2,3-triazol-4-yl)phenyl)diniethylphosphine oxide] | – | –
1270 | 180 | – | – | 11.6 | – | – | CCc1cc(Nc2ncc(Br)c(Nc3ccc(-c4cnn(C(F)F)n4)cc3P(C)(C)=O)n2)c(OC)cc1N1CCC(N2CCN(C)CC2)CC1 [Compound K-006, (2-((5-Bromo-2-((5-ethyl-2-methoxy-4-(4-(4-methylpiperazin-1-yl)piperidin-1-yl)phenyl)amino)pyrimidin-4-yl)amino)-5-(2-(difluoromethyl)-2H-1,2,3-triazol-4-yl)phenyl)dimethylphosphine oxide] | – | –
910 | 113 | – | – | 1 | – | – | COc1cn(-c2ccc(Nc3nc(Nc4cc(-c5cnn(C)c5)c(N5CCN(c6cccnc6)CC5)cc4OC)ncc3Br)c(P(C)(C)=O)c2)cn1 [Compound K-083, (2-((5-Bromo-2-((2-methoxy-5-(1-methyl-1H-pyrazol-4-yl)-4-(4-(pyridin-3-yl)Piperazin-1-yl)phenyl)amino)pyrimidin-4-yl)amino)-5-(4-methoxy-1H-imidazol-1-yl)phenyl)dimethylphosphine oxide] | – | –
